Test results taken from patent publication US7973034B2, “Amide, aryl sulfonamide, aryl urea, and α,β-diketone derived carboxylesterase inhibitors, and their methods of use” (priority 2003, dated 2011).
Like-named read-outs stand apart in the source and are kept apart here.

Columns and labels:
carboxylesterases = experiment: General carboxylesterase inhibition; assay type: biochemical
Experimental: Carboxylesterase (CE) inhibition was determined by a spectroscopic assay using o-nitrophenyl acetate (o-NPA) as a substrate. Recombinant CEs produced from expression in Spodoptera frugiperda Sf9 insect cells via baculovirus were purified from serum-free culture media for the enzyme inhibition studies. Enzymes were incubated in 200 μl of 50 mM Hepes (pH 7.4) containing 3 mM o-NPA. Conversion of the o-NPA to nitrophenol was monitored by measuring the change in the absorbance at 420 nm. Absorbance readings were taken every 15 seconds for 2 minutes, and data transferred to a computer data spreadsheet. […] The final DMSO concentration was always 1% or less. […] The above procedure was then repeated using the same assay, with inhibitor concentrations ranging from 1 nM to 100 μM. Results were then transferred to Prism software (GraphPad Software, Inc., San Diego, Calif.) and Ki values determined using sigmoidal curve fits of the data. Routinely, all analyses were performed in duplicate, and Ki values determined using at least 8 inhibitor concentrations.

[1] = system: chicken liver carboxylesterase; conditions: cited from earlier work
[2] = human plasma in vitro; cited from earlier work
[3] = rat plasma, within 1 hour of incubation; cited from earlier work
[4] = mouse plasma, within 1 hour of incubation; cited from earlier work

Compound | found to be general carboxylesterase inhibitors (carboxylesterases) | inhibition of chicken liver carboxylesterase [1] | level of activation of CPT-11 by plasma [2] | drug converted to SN-38 [3] | drug converted to SN-38 [4]
O=C(C(=O)c1ccccc1)c1ccccc1 [Compound 2, Diphenylethane-1,2-dione] | general carboxylesterase inhibitors | inhibition | – | – | –
CCc1c2c(nc3ccc(OC(=O)N4CCC(N5CCCCC5)CC4)cc13)-c1cc3c(c(=O)n1C2)COC(=O)[C@]3(O)CC [CPT-11, 7-ethyl-10-[4-(1-piperidino)-1-piperidino]carbonyloxycamptothecin] | – | – | very low | greater than 50% | greater than 50%
